Test systems include MDA-MB-231 breast; SN12C renal; SF-539 CNS; MALME-3M melanoma; UACC-62 melanoma; HL-60(TB) leukemia; TK-10 renal; HOP-62 NSCLC; RPMI-8226 leukemia; HS 578T breast.
What all share (test): NCI tumour cell line growth inhibition, 48 h

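48-hour exposure; five concentrations; linearly interpolated endpoints. GI50 = concentration required for 50% inhibition of growth. Definition used: TGI = concentration required for complete inhibition of growth.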

Turning to `S=C1SC2(CCCCCC2)NC2=C1CCCCC2`, the TGI in the assay on MDA-MB-231 breast was more than 100 µM; with SN12C renal it was more than 100 µM; in the assay on SF-539 CNS it was more than 100 µM; in the assay with MALME-3M melanoma it was more than 100 µM; with UACC-62 melanoma, more than 100 µM; with HL-60(TB) leukemia, 38.5 µM. Further, the TGI with TK-10 renal is more than 100 µM; in the assay on HOP-62 NSCLC, more than 100 µM; with RPMI-8226 leukemia it was 69.3 µM; in the assay with HS 578T breast it was 47.6 µM.

In the case of `Cc1cc2cc(Oc3ccnc(Nc4cccc(CS(=O)(=O)NCCN(C)C)c4)n3)ccc2[nH]1`, the GI50 was 4.61 µM in the assay with MDA-MB-231 breast; 5.81 µM in the assay on SN12C renal; 3.05 µM in the assay on SF-539 CNS; 2.96 µM in the assay with MALME-3M melanoma; 3.85 µM with UACC-62 melanoma; 2.24 µM in the assay on HL-60(TB) leukemia. In addition, the GI50 in the assay on TK-10 renal was 12.5 µM; with HOP-62 NSCLC it was 7 µM; in the assay on RPMI-8226 leukemia it was 2.99 µM; in the assay on HS 578T breast it was 3.17 µM. Further, the TGI in the assay on MDA-MB-231 breast is 17.2 µM; in the assay on SN12C renal, 19.2 µM; with SF-539 CNS, 13.3 µM; with MALME-3M melanoma it was 10.5 µM; in the assay with UACC-62 melanoma, 14.4 µM; in the assay with HL-60(TB) leukemia it was 6.17 µM. Also, the TGI in the assay on TK-10 renal worked out at 25.3 µM; in the assay with HOP-62 NSCLC it was 21.6 µM; with RPMI-8226 leukemia, 11.5 µM; in the assay on HS 578T breast it was 29.5 µM.

As to `COc1ccc(-c2ccc(=O)oc2-c2cc(OC)c(OC)c(OC)c2)cc1O`, the GI50 was 0.0613 µM with MDA-MB-231 breast; 0.0697 µM with SN12C renal; less than 0.0149 µM in the assay with SF-539 CNS; less than 0.0402 µM with UACC-62 melanoma; 0.0208 µM with HL-60(TB) leukemia; 62.3 µM in the assay on TK-10 renal. Further, the figures for the GI50 in the assay with HOP-62 NSCLC, in the assay on RPMI-8226 leukemia and with HS 578T breast were 0.0199 µM, 0.0251 µM and 0.0275 µM, respectively. Besides, the TGI was more than 100 µM in the assay on MDA-MB-231 breast; more than 100 µM in the assay on SN12C renal; 0.104 µM in the assay with SF-539 CNS; more than 100 µM in the assay on MALME-3M melanoma; more than 100 µM in the assay with UACC-62 melanoma; 0.0705 µM in the assay with HL-60(TB) leukemia. The TGI is more than 100 µM with TK-10 renal, more than 100 µM in the assay on HOP-62 NSCLC, 0.956 µM with RPMI-8226 leukemia and more than 100 µM in the assay with HS 578T breast.

As for `CC(C)NCCCNC1=C(Cl)C(=O)c2ccccc2C1=O`, the GI50 is 4.08 µM in the assay on MDA-MB-231 breast; 1.89 µM in the assay with SN12C renal; 16.5 µM in the assay with SF-539 CNS; 1.97 µM with MALME-3M melanoma; 2.1 µM in the assay with UACC-62 melanoma; 2.2 µM with HL-60(TB) leukemia. The GI50 with TK-10 renal is 22.7 µM; with HOP-62 NSCLC, 13.8 µM; with RPMI-8226 leukemia, 3.48 µM; in the assay with HS 578T breast it was 2.93 µM. Further, the TGI came out at 18.3 µM in the assay on MDA-MB-231 breast; 3.93 µM in the assay with SN12C renal; 31.8 µM in the assay with SF-539 CNS; 3.69 µM in the assay on MALME-3M melanoma; 4.91 µM in the assay on UACC-62 melanoma; 5.03 µM with HL-60(TB) leukemia. Also, the TGI in the assay on TK-10 renal came out at 38.8 µM; in the assay on HOP-62 NSCLC, 27.4 µM; in the assay with RPMI-8226 leukemia, 19.2 µM; with HS 578T breast it was 9.02 µM.

On to `CC(C)(C)OC(=O)N(CCCn1c2c(c3ccccc3c1=O)C(=O)c1ccccc1-2)CCN(CCCn1c2c(c3ccccc3c1=O)C(=O)c1ccccc1-2)C(=O)OC(C)(C)C`, for which the GI50 in the assay on MDA-MB-231 breast was 15.3 µM; in the assay on SN12C renal, 39.9 µM; in the assay with SF-539 CNS it was more than 50 µM; in the assay on MALME-3M melanoma, more than 50 µM; in the assay on UACC-62 melanoma it was 45.3 µM; in the assay on HL-60(TB) leukemia, more than 50 µM. Also, the GI50 is more than 50 µM in the assay with TK-10 renal, 19.8 µM with HOP-62 NSCLC, 12.1 µM with RPMI-8226 leukemia and 15.8 µM in the assay with HS 578T breast. The TGI in the assay with MDA-MB-231 breast, with SN12C renal, in the assay on SF-539 CNS, with MALME-3M melanoma, in the assay on UACC-62 melanoma and in the assay with HL-60(TB) leukemia was more than 50 µM each time. For the same molecule, the TGI with TK-10 renal, in the assay with HOP-62 NSCLC, in the assay on RPMI-8226 leukemia and with HS 578T breast was more than 50 µM each time.

In the case of `C[C@]1(O)CC(=O)[C@]2(O)C3=C(C=C[C@]2(O)C1)C(=O)c1c(O)cccc1C3=O`, the GI50 was 2.25 µM in the assay with MDA-MB-231 breast; 1.72 µM with SN12C renal; 4.67 µM in the assay with SF-539 CNS; 0.492 µM in the assay with MALME-3M melanoma; 1.86 µM in the assay on UACC-62 melanoma; 2.05 µM in the assay with HL-60(TB) leukemia. The GI50 in the assay with TK-10 renal was 2.27 µM; with HOP-62 NSCLC, 15.6 µM; with RPMI-8226 leukemia, 1.64 µM; in the assay on HS 578T breast, 2.74 µM. For the same molecule, the TGI with MDA-MB-231 breast was 6.6 µM; with SN12C renal, 3.18 µM; in the assay on SF-539 CNS, 17 µM; in the assay with MALME-3M melanoma it was 1.84 µM; in the assay with UACC-62 melanoma, 3.91 µM; with HL-60(TB) leukemia, 4.5 µM. Besides, the TGI in the assay on TK-10 renal came to 3.97 µM; in the assay with HOP-62 NSCLC, 42.6 µM; in the assay with RPMI-8226 leukemia it was 5.65 µM; in the assay on HS 578T breast, 14.7 µM.

As for `COc1ccc(-n2nc(C)c3c(Nc4ccc(NC(=O)Nc5cc(C(F)(F)F)ccc5F)cc4)ncnc32)cc1`, the GI50 with MDA-MB-231 breast was 1.61 µM; in the assay with SN12C renal, 2.96 µM; in the assay on SF-539 CNS, 1.94 µM; in the assay with MALME-3M melanoma, 1.76 µM; with UACC-62 melanoma it was 1.88 µM; with HL-60(TB) leukemia, 2.55 µM. Moreover, the GI50 was 3.74 µM in the assay on TK-10 renal, 2.97 µM with HOP-62 NSCLC, 2.26 µM in the assay on RPMI-8226 leukemia and 2.33 µM in the assay on HS 578T breast. For the same molecule, the TGI in the assay on MDA-MB-231 breast is 3.55 µM; with SN12C renal, 42.9 µM; in the assay with SF-539 CNS it was 4.87 µM; with MALME-3M melanoma it was 4.06 µM; in the assay with UACC-62 melanoma it was 4.34 µM; in the assay with HL-60(TB) leukemia it was 6.67 µM. In addition, the TGI is more than 100 µM with TK-10 renal, 11.4 µM with HOP-62 NSCLC, 5.88 µM in the assay on RPMI-8226 leukemia and 7.11 µM with HS 578T breast.

The record behind these values is PubChem BioAssay (NCI).
